# Source: US9517993B2, “Antagonists of the toll-like receptor 1/2 complex” (THE REGENTS OF THE UNIVERSITY OF COLORADO, a body corporate, priority 2012, dated 2016)
# Tests used:
# [1] = biological target: T1, TLR4 (Mus musculus, UniProt Q9JHF9+Q9QUK6); test: RAW 264.7 nitric oxide TLR selectivity assay (LPS); format: cell-based; settings: 10 ng/mL LPS
# T1 construct: RAW 264.7 Cells Nitric Oxide TLR Selectivity Assay; endogenous in cells; host or cells: RAW 264.7
# T1 sequence (Q9QUK6 26-835): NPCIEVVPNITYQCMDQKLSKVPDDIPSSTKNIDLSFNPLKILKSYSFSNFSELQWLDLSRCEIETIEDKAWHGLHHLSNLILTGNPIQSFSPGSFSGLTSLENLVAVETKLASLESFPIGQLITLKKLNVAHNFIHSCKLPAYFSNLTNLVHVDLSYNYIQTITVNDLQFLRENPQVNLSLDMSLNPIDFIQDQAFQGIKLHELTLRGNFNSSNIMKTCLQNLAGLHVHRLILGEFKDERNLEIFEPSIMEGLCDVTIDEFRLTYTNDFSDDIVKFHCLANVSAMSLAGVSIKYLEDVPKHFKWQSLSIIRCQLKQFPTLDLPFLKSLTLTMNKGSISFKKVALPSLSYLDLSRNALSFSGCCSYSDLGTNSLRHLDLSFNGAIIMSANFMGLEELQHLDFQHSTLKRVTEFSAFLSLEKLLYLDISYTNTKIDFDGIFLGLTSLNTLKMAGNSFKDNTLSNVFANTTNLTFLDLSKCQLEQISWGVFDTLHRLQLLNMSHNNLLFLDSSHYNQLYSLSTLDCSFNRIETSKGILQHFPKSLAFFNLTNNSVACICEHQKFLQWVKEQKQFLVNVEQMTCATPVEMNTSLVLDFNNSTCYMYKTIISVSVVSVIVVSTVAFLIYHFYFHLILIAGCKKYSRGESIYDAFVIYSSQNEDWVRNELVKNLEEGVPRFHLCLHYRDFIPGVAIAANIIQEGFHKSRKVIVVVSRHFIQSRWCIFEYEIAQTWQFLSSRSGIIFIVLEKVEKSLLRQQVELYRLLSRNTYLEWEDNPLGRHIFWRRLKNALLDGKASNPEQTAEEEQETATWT
# T1 sequence (Q9JHF9 19-160): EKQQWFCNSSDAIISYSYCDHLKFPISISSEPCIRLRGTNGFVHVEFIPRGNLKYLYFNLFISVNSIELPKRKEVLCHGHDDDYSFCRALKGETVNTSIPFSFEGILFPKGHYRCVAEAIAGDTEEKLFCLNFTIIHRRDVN
# Procedure: (§1) RAW 264.7 (Mouse leukaemic monocyte macrophage cell line) cells were grown in RPMI 1640 medium, supplemented with 10% FBS, penicillin (100 U/mL) and streptomycin ([…]). RAW cells were then planted in 96-well plates at 80,000 cells per well and grown for 24 h in the media descried previously at 37° C. in a 5% CO2 humidified incubator. After 24 h, non-adherent cells and media were removed and replaced with fresh unsupplemented RPMI 1640 medium. The adherent macrophages were treated with Pam3CSK4 (CAS No. 112208-00-1; a synthetic triacylated lipopeptide (LP) that mimics the acylated amino terminus of bacterial LPs) (200 ng/mL) (Invivogen, USA), an agonist of TLR1/2, and then added different concentrates of potential inhibitor. Two rows were only treated with Pam3CSK4 as control. […] The reaction was quenched by addition of 5 μL of a 3 M aqueous NaOH solution and the plate was read on Beckman Coulter DTX880 reader (Beckman Coulter, Calif., USA) with excitation at 365 nm and emission at 450 nm. The nitrite (a stable metabolite of nitric oxide) concentration was determined from a nitrite standard curve. The inhibition rate (%) of NO release was determined using the following formula: Inhibition (%)=[Pam3CSK4(OD450) […]]/[Pam3CSK4 (OD450)−Control (OD450)]×100. The IC50 values for both inhibition and cytotoxicity were determined graphically using software Origin v7.5. […]
# [2] = biological target: T2, TLR7 (Mus musculus, UniProt P58681); test: RAW 264.7 nitric oxide TLR selectivity assay (R848); format: cell-based; settings: 100 nM R848
# T2 construct: RAW 264.7 Cells Nitric Oxide TLR Selectivity Assay; endogenous in cells; host or cells: RAW 264.7
# T2 sequence (P58681 27-1050): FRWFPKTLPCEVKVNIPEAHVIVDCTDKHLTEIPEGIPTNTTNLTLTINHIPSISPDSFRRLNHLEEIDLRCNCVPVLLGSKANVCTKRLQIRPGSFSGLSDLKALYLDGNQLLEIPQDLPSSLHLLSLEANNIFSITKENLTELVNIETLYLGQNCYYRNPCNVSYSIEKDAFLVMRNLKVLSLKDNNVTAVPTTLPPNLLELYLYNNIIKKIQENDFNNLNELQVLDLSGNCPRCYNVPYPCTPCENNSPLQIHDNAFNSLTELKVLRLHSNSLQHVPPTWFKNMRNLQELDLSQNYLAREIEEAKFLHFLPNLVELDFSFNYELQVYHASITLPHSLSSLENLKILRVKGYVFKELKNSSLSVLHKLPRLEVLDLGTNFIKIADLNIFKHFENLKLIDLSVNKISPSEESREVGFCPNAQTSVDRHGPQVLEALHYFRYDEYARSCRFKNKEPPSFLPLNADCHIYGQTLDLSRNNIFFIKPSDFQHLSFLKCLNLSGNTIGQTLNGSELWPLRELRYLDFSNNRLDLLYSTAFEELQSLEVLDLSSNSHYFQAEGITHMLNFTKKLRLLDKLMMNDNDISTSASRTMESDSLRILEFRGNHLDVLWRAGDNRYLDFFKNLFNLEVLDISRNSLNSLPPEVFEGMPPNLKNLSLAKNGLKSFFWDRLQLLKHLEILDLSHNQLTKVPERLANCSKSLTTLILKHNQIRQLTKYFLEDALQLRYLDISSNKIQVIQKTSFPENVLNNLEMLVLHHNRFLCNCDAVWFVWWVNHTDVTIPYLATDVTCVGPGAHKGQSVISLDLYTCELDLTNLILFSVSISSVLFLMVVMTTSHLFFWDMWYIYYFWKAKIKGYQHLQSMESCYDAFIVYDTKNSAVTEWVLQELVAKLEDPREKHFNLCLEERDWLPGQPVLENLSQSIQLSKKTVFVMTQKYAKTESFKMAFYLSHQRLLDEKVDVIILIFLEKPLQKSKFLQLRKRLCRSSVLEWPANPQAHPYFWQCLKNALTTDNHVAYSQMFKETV
# Procedure: as §1
Structure (SMILES),inhibition of TLR4 signaling ([1]; 3 μM compound),inhibition of TLR7 signaling ([2]; 3 μM compound),inhibition of TLR4 signaling ([1]; 0.5 μM compound),inhibition of TLR7 signaling ([2]; 0.5 μM compound)
"O=c1c(O)cccc2cc(O)c(O)c(O)c12 [NCI35676, purpurogallin, reference compound]",no other homologous TLRs,no other homologous TLRs,–,–
"CCCCCCOC(=O)c1cc(O)c(=O)c2c(O)c(O)c(OC)cc2c1 [compound 17, Hexyl 3,4,6-trihydroxy-2-methoxy-5-oxo-5H-benzo[7]annulene-8-carboxylate]",–,–,without affecting other TLRs,without affecting other TLRs
